# Tests used:
# A2780 [1] = test: Cytotoxicity against human A2780 cells assessed as cell viability measured after 48 hrs by MTT assay; type: functional, cell-based; conditions: A2780, 48 h
# A2780 [2] = test: Induction of apoptosis in human A2780 cells assessed as late apoptotic cells at 800 nM measured after 24 hrs by Annexin V-FITC/PI flow cytometry (reference value: 1.58%); type: functional
# A2780 [3] = test: Induction of apoptosis in human A2780 cells assessed as necrotic cells at 800 nM measured after 24 hrs by Annexin V-FITC/PI flow cytometry (reference value: 0.18%); type: functional
# A2780 [4] = test: Induction of apoptosis in human A2780 cells assessed as viable cells at 800 nM measured after 24 hrs by Annexin V-FITC/PI flow cytometry (reference value: 96.1%); type: functional; conditions: read-out: Activity
# A2780 [5] = test: Induction of apoptosis in human A2780 cells assessed as early apoptotic cells at 800 nM measured after 24 hrs by Annexin V-FITC/PI flow cytometry (reference value: 2.17%); type: functional
# SK-OV-3 = test: Cytotoxicity against human SK-OV-3 cells assessed as cell viability measured after 48 hrs by MTT assay; type: functional, cell-based; conditions: SK-OV-3, 48 h
# Huh-7 = test: Cytotoxicity against human Huh-7 cells assessed as cell viability measured after 48 hrs by MTT assay; type: functional, cell-based; conditions: Huh-7, 48 h
# A2780 [6] = test: Induction of apoptosis in human A2780 cells assessed as viable cells at 20 uM measured after 24 to 72 hrs by Annexin V-FITC/PI flow cytometry (reference value: 94.2%); type: functional; conditions: time 24-72 hrs, read-out: Activity
# A2780 [7] = test: Induction of apoptosis in human A2780 cells assessed as early apoptotic cells at […] measured after 24 to 72 hrs by Annexin V-FITC/PI flow cytometry (reference value: 2.82%); type: functional; conditions: time 24-72 hrs
# A2780 [8] = test: Induction of apoptosis in human A2780 cells assessed as late apoptotic cells at […] measured after 24 to 72 hrs by Annexin V-FITC/PI flow cytometry (reference value: 2.54%); type: functional; conditions: time 24-72 hrs
# A2780 [9] = test: Induction of apoptosis in human A2780 cells assessed as necrotic cells at 20 uM measured after 24 to 72 hrs by Annexin V-FITC/PI flow cytometry (reference value: 0.39%); type: functional; conditions: time 24-72 hrs
# A2780 [10] = test: Induction of cell cycle arrest in human A2780 cells assessed as accumulation of cells at G1 phase at 20 uM measured after 24 hrs by PI staining based Cell Cycle Analysis Kit (KeyGEN) (reference value: 54.2%); type: functional
# A2780 [11] = test: Induction of cell cycle arrest in human A2780 cells assessed as accumulation of cells at S phase at 20 uM measured after 24 hrs by PI staining based Cell Cycle Analysis Kit (KeyGEN) (reference value: 15%); type: functional
# A2780 [12] = test: Induction of cell cycle arrest in human A2780 cells assessed as accumulation of cells at G2 phase at 20 uM measured after 24 hrs by PI staining based Cell Cycle Analysis Kit (KeyGEN) (reference value: 24.5%); type: functional
smiles,measurement,setting,value
C[C@@]1(C(=O)O)CC[C@]2(C)CC[C@]3(C)C4=CC(=O)c5c(cc(O)c(O)c5C=O)[C@]4(C)CC[C@@]3(C)[C@@H]2C1,IC50,A2780 [1],10.1 µM
C[C@]12CCC[C@@]3(COC1=O)[C@@H]1CC[C@@H]4C[C@@]1(CC[C@@H]32)C[C@@]4(C)O,IC50,A2780 [1],> 60 µM
C[C@@H]1[C@@]23CC[C@H]4[C@@](C)(CC[C@@]5(C)[C@@H]6C[C@](C)(C(=O)O)CC[C@]6(C)CC[C@]45C)[C@@H]2C[C@@H](O)[C@@]1(O)OC3,IC50,A2780 [1],> 60 µM
CC(=O)OC[C@]12[C@H](OC(C)=O)[C@H](OC(C)=O)[C@@H]3[C@@H](OC(C)=O)[C@@]14O[C@@]3(C)COC(=O)c1cccnc1CC[C@H](C)C(=O)O[C@@H]([C@H](OC(=O)c1ccccc1)[C@@H]2OC(C)=O)[C@]4(C)O,IC50,A2780 [1],> 60 µM
CC(=O)OC[C@]12[C@H](OC(C)=O)[C@H](OC(C)=O)[C@@H]3[C@@H](OC(C)=O)[C@@]14OC3(C)COC(=O)c1cccnc1CCC(C)C(=O)O[C@@H]([C@H](OC(=O)c1ccoc1)[C@@H]2OC(C)=O)C4(C)O (stereo not given in full),IC50,A2780 [1],> 60 µM
CC1(C)[C@@H](O)CC[C@]2(C)[C@H]3CC=C4[C@@H]5C[C@@]6(C)C[C@H](OC6=O)[C@]5(C)CC[C@@]4(C)[C@]3(C)CC[C@@H]12 [3-EPIABRUSLACTONE A],IC50,A2780 [1],> 60 µM
CO/C1=C\C(C)=C\[C@@H](C)[C@@H](O)[C@@H](C)C/C(C)=C/C=C/[C@H](OC)[C@@H]([C@@H](C)[C@@H](O)[C@H](C)[C@@]2(O)C[C@@H](O)[C@H](C)[C@@H](C(C)C)O2)OC1=O [BAFILOMYCIN A1],Activity,A2780 [2],2.27%
same,Activity,A2780 [3],0.43%
same,viability at 0.8 µM,A2780 [4],94%
same,Activity,A2780 [5],3.33%
CC1=C(O)C(=O)C=C2C1=CC=C1[C@@]2(C)CC[C@@]2(C)[C@@H]3C[C@](C)(C(=O)O)CC[C@]3(C)CC[C@]12C [CELASTROL],IC50,A2780 [1],1.57 µM
COc1cccc2c1C(=O)c1c(O)c3c(c(O)c1C2=O)C[C@@](O)(C(=O)CO)C[C@@H]3O[C@H]1C[C@H](N)[C@@H](O)[C@H](C)O1 [EPIRUBICIN],IC50,A2780 [1],1.28 µM
same,IC50,SK-OV-3,0.498 µM
same,IC50,Huh-7,0.495 µM
O=c1[nH]cc(F)c(=O)[nH]1 [FLUOROURACIL],IC50,A2780 [1],3.93 µM
same,IC50,SK-OV-3,10.8 µM
same,IC50,Huh-7,28.5 µM
C[S+]([O-])c1ccc(-c2nc(-c3ccc(F)cc3)c(-c3ccncc3)[nH]2)cc1 (stereo not given) [SB-203580],viability at 20 µM,A2780 [6],92%
same,Activity,A2780 [7],3.32%
same,Activity,A2780 [8],4.27%
same,Activity,A2780 [9],0.41%
same,Activity,A2780 [10],53.8%
same,Activity,A2780 [11],10%
same,Activity,A2780 [12],31.5%
CC(C)c1ccc2c(c1O)CC[C@H]1C3=C(CC[C@]21C)C(=O)OC3 [TRIPTOPHENOLIDE],IC50,A2780 [1],> 60 µM

# Reference: ChEMBL document CHEMBL5608179, “Triptonide induces apoptosis and inhibits the proliferation of ovarian cancer cells by activating the p38/p53 pathway and autophagy” (Bioorg Med Chem, 2024)
